SMILES strings stand for the structures.

One data set addresses KRAS (G12D)::SOS1 (Homo sapiens (Human), UniProt P01116, G12D). Briefly: KRAS::SOS1 AlphaScreen binding assay, KRAS G12D. In short, it runs like this: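 KRAS 1-169 (biotinylated avi-tag) with GST-SOS1 564-1049 and 10 µM GDP in PBS/0.1% BSA/0.05% Tween 20: WT and G13D 10 nM each with 10 nM SOS1; G12D 10 nM and G12C 7.5 nM with 5 nM SOS1. After 30 min, glutathione acceptor/streptavidin donor beads were added for 60 min at RT in the dark, then AlphaScreen read; 4-parameter IC50.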
(In general: Bead proximity is the source of the signal in Alpha formats.)

Data set [1] is described as follows: Caco-2 assay (permeability PappAB, PappBA, efflux ratio). Type of data set: in vitro ADME. To be noted: human, Caco-2, 10 μM test compound, pH 7.4; for Papp A→B at 90 min, 10 μM: apical to basolateral; for efflux ratio at 90 min, 10 μM: efflux ratio PappBA/PappAB, read-out: Caco ER. In short, it runs like this:
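Confluent Caco-2 monolayers on filter supports, 0.25% BSA in both donor and receiver buffer; transport measured a-b and b-a. After 25-30 min preincubation at 37 °C, samples at 0, 30, 60, 90 min quantified by HPLC/MS/MS. Papp from receiver amount per time, filter area and initial donor concentration; efflux ratio = PappBA/PappAB.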
For orientation: Caco-2 monolayers are a common model of the intestinal barrier.

KRAS (G12D)::SOS1, sequence (P01116 other isoform, or with tags, fused parts or gaps G12D): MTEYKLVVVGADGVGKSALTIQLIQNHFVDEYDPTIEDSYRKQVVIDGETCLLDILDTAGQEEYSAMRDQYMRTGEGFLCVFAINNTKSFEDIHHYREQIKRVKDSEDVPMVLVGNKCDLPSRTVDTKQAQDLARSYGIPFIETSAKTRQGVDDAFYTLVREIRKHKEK

For `C[C@H](Oc1cc(N2CC3CCC(C2)N3)nc(-c2noc3c2CCC[C@@]32CCCc3sc(N)c(C#N)c32)n1)[C@@H]1CCCN1C` [II-34], on KRAS (G12D)::SOS1, the IC50 was 1 nM. In addition, in data set [1], the apparent permeability from apical to basolateral (Papp A→B) at 90 min, 10 μM is 0.4 ×10⁻⁶ cm/s and the efflux ratio at 90 min, 10 μM is 37.8.
Regarding `C[C@H](Oc1cc(N2CCNC(C)(C)C2)nc(-c2noc3c2CCC[C@@]32CCCc3sc(N)c(C#N)c32)n1)[C@@H]1CCCN1C` [II-32], the IC50 at KRAS (G12D)::SOS1 was determined as 1 nM. Further, in data set [1], the Papp A→B at 90 min, 10 μM was 0.3 ×10⁻⁶ cm/s and the efflux ratio at 90 min, 10 μM was 76.6.
Take `C[C@H](Oc1cc(-c2ccn([C@H]3CCCOC3)n2)nc(-c2noc3c2CCC[C@@]32CCCc3sc(N)c(C#N)c32)n1)[C@@H]1CCCN1C` [II-42]: the IC50 at KRAS (G12D)::SOS1 was found to be 2 nM. Moreover, the efflux ratio at 90 min, 10 μM in data set [1] was 2.
`C[C@H](Oc1cc(-c2ccn(CC(C)(C)O)n2)nc(-c2onc3c2CCC[C@@]32CCCc3sc(N)c(C#N)c32)n1)[C@@H]1CCCN1C` [I-26] displayed an IC50 on KRAS (G12D)::SOS1 of 3 nM. In data set [1], the Papp A→B at 90 min, 10 μM came out at 3 ×10⁻⁶ cm/s and the efflux ratio at 90 min, 10 μM turned out to be 10.7.
For `CO[C@@H]1C[C@@H]([C@H](C)Oc2cc(-c3ccn(C)n3)nc(-c3onc4c3CCC[C@@]43CCCc4sc(N)c(C#N)c43)n2)N(C)C1` [I-23], in that order: 7 nM, 9.2 ×10⁻⁶ cm/s and 1.5.
For the compound `C[C@H](Oc1cc(N2C[C@@H](N(C)C)[C@@H](O)C2)nc(-c2noc3c2CCC[C@@]32CCCc3sc(N)c(C#N)c32)n1)[C@@H]1CCCN1C` [II-10], the IC50 at KRAS (G12D)::SOS1 came out at 2 nM. Also, in data set [1], the Papp A→B at 90 min, 10 μM was found to be 0.3 ×10⁻⁶ cm/s and the efflux ratio at 90 min, 10 μM came to 68.
The like results for `C[C@H](Oc1nc(-c2onc3c2CCC[C@@]32CCCc3sc(N)c(C#N)c32)cc(N2CCNC3(CC3)C2)n1)[C@@H]1CCCN1C` [I-2] were, in that order, 2 nM, 1.2 ×10⁻⁶ cm/s and 17.5.
The like results for `C[C@H](Oc1cc([C@@H]2CCOC2)nc(-c2onc3c2CCC[C@@]32CCCc3sc(N)c(C#N)c32)n1)[C@@H]1CCCN1C` [I-22] were, in that order, 1 nM, 18 ×10⁻⁶ cm/s and 1.9.
Regarding `C[C@H](Oc1cc(N2C[C@H]3CN(C)C[C@H]3C2)nc(-c2noc3c2CCC[C@@]32CCCc3sc(N)c(C#N)c32)n1)[C@@H]1CCCN1C` [II-33], the IC50 at KRAS (G12D)::SOS1 worked out at 2 nM. In data set [1], the Papp A→B at 90 min, 10 μM came out at 0.4 ×10⁻⁶ cm/s and the efflux ratio at 90 min, 10 μM came out at 52.3.
Turning to `CN[C@H]1CCN(c2cc(O[C@@H](C)[C@@H]3CCCN3C)nc(-c3noc4c3CCC[C@@]43CCCc4sc(N)c(C#N)c43)n2)C1` [II-35], the IC50 at KRAS (G12D)::SOS1 was determined as 2 nM. Further, in data set [1], the Papp A→B at 90 min, 10 μM was under 0.5 ×10⁻⁶ cm/s.
The compound `C[C@H](O)Cn1ccc(-c2cc(O[C@@H](C)[C@@H]3CCCN3C)nc(-c3onc4c3CCC[C@@]43CCCc4sc(N)c(C#N)c43)n2)n1` [I-31] gave an IC50 at KRAS (G12D)::SOS1 of 3 nM. Also, in data set [1], the Papp A→B at 90 min, 10 μM came out at 2.3 ×10⁻⁶ cm/s and the efflux ratio at 90 min, 10 μM was 13.9.
As for `C[C@H](Oc1cc(N2CCC(N(C)C)CC2)nc(-c2noc3c2CCC[C@@]32CCCc3sc(N)c(C#N)c32)n1)[C@@H]1CCCN1C` [II-48], the IC50 at KRAS (G12D)::SOS1 was 1 nM. Further, in data set [1], the Papp A→B at 90 min, 10 μM amounted to 0.6 ×10⁻⁶ cm/s and the efflux ratio at 90 min, 10 μM was found to be 32.2.
On to `COCCNC(=O)c1ccn(-c2cc(O[C@@H](C)[C@@H]3CCCN3C)nc(-c3onc4c3CCC[C@@]43CCCc4sc(N)c(C#N)c43)n2)n1` [I-58], for which the IC50 on KRAS (G12D)::SOS1 is 1 nM. In data set [1], the Papp A→B at 90 min, 10 μM was found to be 14 ×10⁻⁶ cm/s and the efflux ratio at 90 min, 10 μM worked out at 3.4.
Take `C[C@H](Oc1cc(N2CCNC3(CCC3)C2)nc(-c2noc3c2CCC[C@@]32CCCc3sc(N)c(C#N)c32)n1)[C@@H]1CCCN1C` [II-40]: the IC50 at KRAS (G12D)::SOS1 was found to be 1 nM. In data set [1], the Papp A→B at 90 min, 10 μM turned out to be 0.8 ×10⁻⁶ cm/s and the efflux ratio at 90 min, 10 μM is 39.7.
The like results for `C[C@H](Oc1nc(-c2noc3c2CCC[C@@]32CCCc3sc(N)c(C#N)c32)cc(N2C[C@H](C)N[C@@H](C)C2)n1)[C@@H]1CCCN1C` [II-46] were, in that order, 1 nM, 0.8 ×10⁻⁶ cm/s and 28.8.
The compound `C[C@H](Oc1cc(N2CC[C@H](N3CCCCC3)C2)nc(-c2noc3c2CCC[C@@]32CCCc3sc(N)c(C#N)c32)n1)[C@@H]1CCCN1C` [II-12] came in with an IC50 on KRAS (G12D)::SOS1 of 1 nM. The efflux ratio at 90 min, 10 μM in data set [1] amounted to 12.1.
For `C[C@H](Oc1cc(N2CCNC3(COC3)C2)nc(-c2onc3c2CCC[C@@]32CCCc3sc(N)c(C#N)c32)n1)[C@@H]1CCCN1C` [I-4], the IC50 on KRAS (G12D)::SOS1 stood at 1 nM. Further, the Papp A→B at 90 min, 10 μM in data set [1] is under 4.8 ×10⁻⁶ cm/s.
Compound `C[C@H]1CN(C)CCCN1c1cc(N2CC[C@H](N(C)C)C2)nc(-c2noc3c2CCC[C@@]32CCCc3sc(N)c(C#N)c32)n1` [II-16] displayed an IC50 at KRAS (G12D)::SOS1 of 1 nM. In data set [1], the Papp A→B at 90 min, 10 μM worked out at 0.5 ×10⁻⁶ cm/s and the efflux ratio at 90 min, 10 μM turned out to be 33.3.
The like results for `C[C@H](Oc1cc(N2CCN(CCO)CC2)nc(-c2noc3c2CCC[C@@]32CCCc3sc(N)c(C#N)c32)n1)[C@@H]1CCCN1C` [II-8] were, in that order, 1 nM, 1.1 ×10⁻⁶ cm/s and 12.7.
Compound `C[C@H](Oc1cc(-n2ccc(C(=O)N[C@@H]3CCOC3)n2)nc(-c2onc3c2CCC[C@@]32CCCc3sc(N)c(C#N)c32)n1)[C@@H]1CCCN1C` [I-56] yielded an IC50 at KRAS (G12D)::SOS1 of 2 nM. In data set [1], the efflux ratio at 90 min, 10 μM came to 10.4.
At KRAS (G12D)::SOS1, `C[C@H](Oc1cc(N2CCNC3(COC3)C2)nc(-c2noc3c2CCC[C@@]32CCCc3sc(N)c(C#N)c32)n1)[C@@H]1CCCN1C` [II-31] came in with an IC50 of 1 nM. Moreover, the Papp A→B at 90 min, 10 μM in data set [1] was under 0.1 ×10⁻⁶ cm/s.
In turn, `C[C@H](Oc1cc([C@H]2CCN(C)C2)nc(-c2noc3c2CCC[C@@]32CCCc3sc(N)c(C#N)c32)n1)[C@@H]1CCCN1C` [II-38] showed an IC50 at KRAS (G12D)::SOS1 of 1 nM. In data set [1], the Papp A→B at 90 min, 10 μM was 0.2 ×10⁻⁶ cm/s and the efflux ratio at 90 min, 10 μM stood at 104.
The like results for `C[C@H](Oc1cc(N2CCN(C)C3(COC3)C2)nc(-c2onc3c2CCC[C@@]32CCCc3sc(N)c(C#N)c32)n1)[C@@H]1C[C@@H](F)CN1C` [I-37] were, in that order, 1 nM, 12 ×10⁻⁶ cm/s and 2.
With `C[C@H](Oc1cc(-c2cnsc2)nc(-c2onc3c2CCC[C@@]32CCCc3sc(N)c(C#N)c32)n1)[C@@H]1CCCN1C` [I-27], on KRAS (G12D)::SOS1, the IC50 turned out to be 3 nM. In data set [1], the efflux ratio at 90 min, 10 μM was determined as 1.1.
Compound `C[C@H](Oc1cc(-c2ccn(C[C@@H]3CCCO3)n2)nc(-c2noc3c2CCC[C@@]32CCCc3sc(N)c(C#N)c32)n1)[C@@H]1CCCN1C` [II-43] had an IC50 at KRAS (G12D)::SOS1 of 2 nM. Also, in data set [1], the apical-to-basolateral permeability (Papp A→B) at 90 min, 10 μM was 10 ×10⁻⁶ cm/s and the efflux ratio at 90 min, 10 μM worked out at 1.2.
For `C[C@H](Oc1cc(-n2ccc(C(=O)NC3(C)COC3)n2)nc(-c2noc3c2CCC[C@@]32CCCc3sc(N)c(C#N)c32)n1)[C@@H]1CCCN1C` [II-26], in that order: 2 nM, 11 ×10⁻⁶ cm/s and 5.8.
As for `C[C@H](Oc1cc(-c2ccn(C[C@@H](C)O)n2)nc(-c2onc3c2CCC[C@@]32CCCc3sc(N)c(C#N)c32)n1)[C@@H]1CCCN1C` [I-30], at KRAS (G12D)::SOS1, the IC50 was found to be 2 nM. Also, in data set [1], the Papp A→B at 90 min, 10 μM is 2 ×10⁻⁶ cm/s and the efflux ratio at 90 min, 10 μM was determined as 18.5.
For `C[C@H](Oc1cc(C2CCCO2)nc(-c2noc3c2CCC[C@@]32CCCc3sc(N)c(C#N)c32)n1)[C@@H]1CCCN1C` (stereo partly drawn) [II-44], in that order: 2 nM, 15 ×10⁻⁶ cm/s and 1.5.
Turning to `C[C@H](Oc1cc(-c2ccn(C3COC3)n2)nc(-c2onc3c2CCC[C@@]32CCCc3sc(N)c(C#N)c32)n1)[C@@H]1CCCN1C` [I-34], on KRAS (G12D)::SOS1, the IC50 is 4 nM. Further, in data set [1], the Papp A→B at 90 min, 10 μM came to 3.6 ×10⁻⁶ cm/s and the efflux ratio at 90 min, 10 μM is 9.2.
For `C[C@H](Oc1cc(-c2ccn(C)n2)nc(-c2noc3c2CCC[C@@]32CCCc3sc(N)c(C#N)c32)n1)[C@@H]1C[C@@H](F)CN1C` [II-27], the IC50 on KRAS (G12D)::SOS1 is 8 nM. For the same compound, in data set [1], the Papp A→B at 90 min, 10 μM amounted to 11 ×10⁻⁶ cm/s and the efflux ratio at 90 min, 10 μM amounted to 0.7.
Consider `C[C@H](Oc1cc(N2CC[C@H](N(C)C)C2)nc(-c2noc3c2CCC[C@@]32CCCc3sc(N)c(C#N)c32)n1)[C@@H]1C[C@@H](F)CN1C` [II-15], for which, on KRAS (G12D)::SOS1, the IC50 is 1 nM. Besides, the efflux ratio at 90 min, 10 μM in data set [1] was 5.3.
The like results for `C[C@H](Oc1cc(N2CCN(C)C3(CC3)C2)nc(-c2onc3c2CCC[C@@]32CCCc3sc(N)c(C#N)c32)n1)[C@@H]1C[C@@H](F)CN1C` [I-39] were, in that order, 1 nM and 0.6.
For `C[C@H](Oc1cc(N2CC(N(C)C)C2)nc(-c2noc3c2CCC[C@@]32CCCc3sc(N)c(C#N)c32)n1)[C@@H]1CCCN1C` [II-7], the IC50 on KRAS (G12D)::SOS1 was determined as 1 nM. In data set [1], the Papp A→B at 90 min, 10 μM is 1.3 ×10⁻⁶ cm/s and the efflux ratio at 90 min, 10 μM stood at 21.5.
The like results for `CNC(=O)c1ccn(-c2cc(O[C@@H](C)[C@@H]3CCCN3C)nc(-c3noc4c3CCC[C@@]43CCCc4sc(N)c(C#N)c43)n2)n1` [II-20] were, in that order, 2 nM, 11.1 ×10⁻⁶ cm/s and 3.3.

For orientation: IC50 means the concentration that gives 50% inhibition. For orientation: Papp A→B means how fast a substance crosses the layer from the apical side.
